Test: method code SF-HPLC, from DOI: 10.1021/jm00151a006, PMID: 3510299
Work on `CN(Cc1ccc(C#N)cc1)N=O` yielded a logP of 0.99.
For `CN(Cc1ccc(F)cc1)N=O`, the logP was 1.67.
For `CN(Cc1ccc(Cl)cc1)N=O`, the logP was 2.19.
`CN(Cc1ccccc1)N=O` showed a logP of 1.55.
In the case of `CN(Cc1cccc(Cl)c1)N=O`, the logP was 1.46.
Compound `CN(Cc1cccc(C(F)(F)F)c1)N=O` has a logP of 1.99.
`CN(Cc1ccc([N+](=O)[O-])cc1)N=O` showed a logP of 0.82.
Work on `Cc1cccc(CN(C)N=O)c1` yielded a logP of 1.96.
In the case of `COc1ccc(CN(C)N=O)cc1`, the logP was 1.62.
Work on `CN(Cc1cccc([N+](=O)[O-])c1)N=O` yielded a logP of 1.17.
Compound `COc1cccc(CN(C)N=O)c1` has a logP of 1.6.
Work on `Cc1ccc(CN(C)N=O)cc1` yielded a logP of 2.14.

Reference: the SangsterLogP compilation
